Measured values as given in PubChem BioAssay AID1963845 (Molecular Pharmacology Branch, DTP, NCI, 2024).

Test system: 429239-143-T-J1-PDC complex spheroid viability
Assay: Anticancer human tumor 429239-143-T-J1-PDC patient-derived small cell lung carcinoma cell line growth inhibition [POLQ]
Conditions: for IC50: curve of first compound; for viability, T/C: stronger effect = lower value
Procedure, shortened: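 PDC + HUVEC + MSC complex spheroids; POLQ inhibitors ± partner drugs; top conc. at/near clinical Cmax, else 10 microM (SN-38 1 microM), half-log dilutions; 37 degrees C, 5% CO2.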

[1] = second compound 0.0316 µM, first compound 0.0316 µM
[2] = second compound 0.0316 µM, first compound 0.1 µM
[3] = second compound 0.0316 µM, first compound 0.316 µM
[4] = second compound 0.0316 µM, first compound 1 µM
[5] = second compound 0.0316 µM, first compound 3.16 µM
[6] = second compound 0.0316 µM, first compound 10 µM
[7] = second compound 0.1 µM, first compound 0.0316 µM
[8] = second compound 0.1 µM, first compound 0.1 µM
[9] = second compound 0.1 µM, first compound 0.316 µM
[10] = second compound 0.1 µM, first compound 1 µM
[11] = second compound 0.1 µM, first compound 3.16 µM
[12] = second compound 0.1 µM, first compound 10 µM
[13] = second compound 0.316 µM, first compound 0.0316 µM
[14] = second compound 0.316 µM, first compound 0.1 µM
[15] = second compound 0.316 µM, first compound 0.316 µM
[16] = second compound 0.316 µM, first compound 1 µM
[17] = second compound 0.316 µM, first compound 3.16 µM
[18] = second compound 0.316 µM, first compound 10 µM
[19] = second compound 1 µM, first compound 0.0316 µM
[20] = second compound 1 µM, first compound 0.1 µM
[21] = second compound 1 µM, first compound 0.316 µM
[22] = second compound 1 µM, first compound 1 µM
[23] = second compound 1 µM, first compound 3.16 µM
[24] = second compound 1 µM, first compound 10 µM
[25] = second compound 3.16 µM, first compound 0.0316 µM
[26] = second compound 3.16 µM, first compound 0.1 µM
[27] = second compound 3.16 µM, first compound 0.316 µM
[28] = second compound 3.16 µM, first compound 1 µM
[29] = second compound 3.16 µM, first compound 3.16 µM
[30] = second compound 3.16 µM, first compound 10 µM
[31] = second compound 10 µM, first compound 0.0316 µM
[32] = second compound 10 µM, first compound 0.1 µM
[33] = second compound 10 µM, first compound 0.316 µM
[34] = second compound 10 µM, first compound 1 µM
[35] = second compound 10 µM, first compound 3.16 µM
[36] = second compound 10 µM, first compound 10 µM
[37] = second compound 0.0316 µM, first compound 0.00316 µM
[38] = second compound 0.0316 µM, first compound 0.01 µM
[39] = second compound 0.1 µM, first compound 0.00316 µM
[40] = second compound 0.1 µM, first compound 0.01 µM
[41] = second compound 0.316 µM, first compound 0.00316 µM
[42] = second compound 0.316 µM, first compound 0.01 µM
[43] = second compound 1 µM, first compound 0.00316 µM
[44] = second compound 1 µM, first compound 0.01 µM
[45] = second compound 3.16 µM, first compound 0.00316 µM
[46] = second compound 3.16 µM, first compound 0.01 µM
[47] = second compound 10 µM, first compound 0.00316 µM
[48] = second compound 10 µM, first compound 0.01 µM
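Further: luminescence signal used as surrogate measure of viable cells; spheroids exposed to compounds for seven days before readout.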
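Wherever viability, T/C is given: 100% = DMSO vehicle control viability as luminescence relative to vehicle.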

COc1cc(C2c3cc4c(cc3C(OC3OC5COC(C)OC5C(O)C3O)C3COC(=O)C23)OCO4)cc(OC)c1O (stereo not drawn) + COC1C(OC(N)=O)C(O)C(Oc2ccc3c(O)c(NC(=O)c4ccc(O)c(CC=C(C)C)c4)c(=O)oc3c2C)OC1(C)C
IC50 (second compound 0.0316 µM): 302 nM | IC50 (second compound 0.1 µM): 249 nM | IC50 (second compound 0.316 µM): 417 nM | IC50 (second compound 1 µM): 325 nM | IC50 (second compound 3.16 µM): 349 nM | IC50 (second compound 10 µM): 274 nM | viability, T/C [1]: 101% | viability, T/C [2]: 81.2% | viability, T/C [3]: 53% | viability, T/C [4]: 15.8% | viability, T/C [5]: 18.2% | viability, T/C [6]: 16.6% | viability, T/C [7]: 106% | viability, T/C [8]: 72% | viability, T/C [9]: 47.9% | viability, T/C [10]: 22% | viability, T/C [11]: 18.2% | viability, T/C [12]: 18.1% | viability, T/C [13]: 88.1% | viability, T/C [14]: 85.3% | viability, T/C [15]: 59.4% | viability, T/C [16]: 20.4% | viability, T/C [17]: 16.6% | viability, T/C [18]: 16.1% | viability, T/C [19]: 90.8% | viability, T/C [20]: 75.5% | viability, T/C [21]: 54% | viability, T/C [22]: 18.6% | viability, T/C [23]: 14% | viability, T/C [24]: 17% | viability, T/C [25]: 88.4% | viability, T/C [26]: 88.9% | viability, T/C [27]: 52.4% | viability, T/C [28]: 20.3% | viability, T/C [29]: 17% | viability, T/C [30]: 13.7% | viability, T/C [31]: 97.4% | viability, T/C [32]: 79.1% | viability, T/C [33]: 47.7% | viability, T/C [34]: 18.9% | viability, T/C [35]: 23% | viability, T/C [36]: 14.2%

CCc1c2c(nc3ccc(O)cc13)-c1cc3c(c(=O)n1C2)COC(=O)[C@]3(O)CC + Cc1cccc(N(C)C(=O)C2C(O)CCN2c2nc(C)cc(C(F)(F)F)c2C#N)c1
IC50 (second compound 0.0316 µM): < 3.16 nM | IC50 (second compound 0.1 µM): < 3.16 nM | IC50 (second compound 0.316 µM): < 3.16 nM | IC50 (second compound 1 µM): < 3.16 nM | IC50 (second compound 3.16 µM): < 3.16 nM | IC50 (second compound 10 µM): < 3.16 nM | viability, T/C [37]: 16.9% | viability, T/C [38]: 17.8% | viability, T/C [1]: 16.1% | viability, T/C [2]: 17.5% | viability, T/C [3]: 13.3% | viability, T/C [4]: 5.41% | viability, T/C [39]: 17.8% | viability, T/C [40]: 18.5% | viability, T/C [7]: 17.6% | viability, T/C [8]: 19% | viability, T/C [9]: 13.6% | viability, T/C [10]: 4.17% | viability, T/C [41]: 16.2% | viability, T/C [42]: 20.4% | viability, T/C [13]: 16.4% | viability, T/C [14]: 17.6% | viability, T/C [15]: 14.1% | viability, T/C [16]: 6.26% | viability, T/C [43]: 21.1% | viability, T/C [44]: 16.7% | viability, T/C [19]: 17.5% | viability, T/C [20]: 16.5% | viability, T/C [21]: 17.5% | viability, T/C [22]: 3.94% | viability, T/C [45]: 19.9% | viability, T/C [46]: 17.4% | viability, T/C [25]: 21.6% | viability, T/C [26]: 16.1% | viability, T/C [27]: 14.9% | viability, T/C [28]: 5.15% | viability, T/C [47]: 18.9% | viability, T/C [48]: 17.5% | viability, T/C [31]: 20.7% | viability, T/C [32]: 17.5% | viability, T/C [33]: 17.9% | viability, T/C [34]: 3.41%

COc1cccc2c1C(=O)c1c(O)c3c(c(O)c1C2=O)CC(O)(C(=O)CO)CC3OC1CC(N)C(O)C(C)O1 (stereo not drawn) + Nc1ccc(C#CCN(C(=O)Cc2ncc(C(F)(F)F)cc2C(F)(F)F)c2ccc(F)cc2)nn1
IC50 (second compound 0.0316 µM): 75.7 nM | IC50 (second compound 0.1 µM): 81.6 nM | IC50 (second compound 0.316 µM): 109 nM | IC50 (second compound 1 µM): 73.9 nM | IC50 (second compound 3.16 µM): 70 nM | IC50 (second compound 10 µM): 67.9 nM | viability, T/C [1]: 85.2% | viability, T/C [2]: 38.8% | viability, T/C [3]: 5.33% | viability, T/C [4]: 1.05% | viability, T/C [5]: 0.09% | viability, T/C [6]: 0.32% | viability, T/C [7]: 83.5% | viability, T/C [8]: 42.8% | viability, T/C [9]: 7.41% | viability, T/C [10]: 0.82% | viability, T/C [11]: 0.06% | viability, T/C [12]: 0.05% | viability, T/C [13]: 87.3% | viability, T/C [14]: 53.6% | viability, T/C [15]: 6.68% | viability, T/C [16]: 0.74% | viability, T/C [17]: 0.05% | viability, T/C [18]: 0.19% | viability, T/C [19]: 83.1% | viability, T/C [20]: 38.2% | viability, T/C [21]: 5.31% | viability, T/C [22]: 0.69% | viability, T/C [23]: 0.1% | viability, T/C [24]: 0.83% | viability, T/C [25]: 83.9% | viability, T/C [26]: 34.8% | viability, T/C [27]: 5.88% | viability, T/C [28]: 0.94% | viability, T/C [29]: 1.4% | viability, T/C [30]: 0.16% | viability, T/C [31]: 80.7% | viability, T/C [32]: 34.4% | viability, T/C [33]: 5.07% | viability, T/C [34]: 0.55% | viability, T/C [35]: 1.2% | viability, T/C [36]: 0.18%

COc1cccc(OCCCN)c1-c1cc(Nc2cnc(C#N)cn2)n[nH]1 + Cc1cccc(N(C)C(=O)C2C(O)CCN2c2nc(C)cc(C(F)(F)F)c2C#N)c1
IC50 (second compound 0.0316 µM): 377 nM | IC50 (second compound 0.1 µM): 339 nM | IC50 (second compound 0.316 µM): 248 nM | IC50 (second compound 1 µM): 256 nM | IC50 (second compound 3.16 µM): 273 nM | IC50 (second compound 10 µM): 227 nM | viability, T/C [37]: 101% | viability, T/C [38]: 110% | viability, T/C [1]: 87.7% | viability, T/C [2]: 73.1% | viability, T/C [3]: 52.7% | viability, T/C [4]: 39.3% | viability, T/C [39]: 101% | viability, T/C [40]: 106% | viability, T/C [7]: 92.9% | viability, T/C [8]: 72% | viability, T/C [9]: 52.7% | viability, T/C [10]: 36.7% | viability, T/C [41]: 106% | viability, T/C [42]: 108% | viability, T/C [13]: 86.4% | viability, T/C [14]: 67.2% | viability, T/C [15]: 46.6% | viability, T/C [16]: 32% | viability, T/C [43]: 108% | viability, T/C [44]: 105% | viability, T/C [19]: 90.8% | viability, T/C [20]: 68.1% | viability, T/C [21]: 46.5% | viability, T/C [22]: 33.1% | viability, T/C [45]: 117% | viability, T/C [46]: 108% | viability, T/C [25]: 93.8% | viability, T/C [26]: 65.4% | viability, T/C [27]: 49.8% | viability, T/C [28]: 34.9% | viability, T/C [47]: 118% | viability, T/C [48]: 92.1% | viability, T/C [31]: 92.1% | viability, T/C [32]: 66.4% | viability, T/C [33]: 39.3% | viability, T/C [34]: 27.7%
